In ChEMBL document CHEMBL1759874, “Feruloylacetone as the model compound of half-curcumin: synthesis and antioxidant properties” (2011):
Active and inactive are the calls of the source. The rule behind the calls is not given here.

Experiments:
[1] = Antioxidant activity against singlet oxygen radicals assessed as decrease of 4-nitroso-N,N-dimethylaniline decolorization after 40 mins by quenching assay; type: functional
[2] = Antioxidant activity against AAPH-induced methyl linoleate oxidation assessed as inhibition period at 50 uM by beta-carotene bleaching test; type: functional
[3] = Antioxidant activity assessed as galvinoxyl free radical scavenging activity at 25 uM; type: functional
[4] = Antioxidant activity against protection of autooxidation of linoleic acid at 50 uM by beta-carotene bleaching test; type: functional
[5] = Antioxidant activity against AAPH-induced DNA damage assessed as inhibition period for TBARS production; type: functional
[6] = Antioxidant activity against hydroxyl radical-induced DNA damage assessed as TBARS production at 0.2 mM after 30 mins; type: functional
Erythrocyte [7] = test: Antioxidant activity in human erythrocytes assessed as inhibition of hemin-induced hemolysis at up to 120 uM after 30 mins; type: functional, cell-based
[8] = Antioxidant activity assessed as ABTS free radical scavenging activity at 50 uM; type: functional
[9] = Antioxidant activity against AAPH-induced methyl linoleate oxidation at 50 uM after 120 mins by beta-carotene bleaching test; type: functional
[10] = test system: Radical scavenging activity; test: Antioxidant activity assessed as DPPH free radical scavenging activity at 50 uM; type: functional
[11] = Antioxidant activity against AAPH-induced DNA damage assessed as TBARS production; type: functional
[12] = Antioxidant activity against Cu2+/GSH-induced oxidation of DNA assessed as TBARS production at 0.2 mM after 30 mins; type: functional
[13] = Antioxidant activity against AAPH-induced hemolysis in human erythrocytes assessed as inhibition time; type: functional, Erythrocyte
Erythrocyte [14] = test: Antioxidant activity in human erythrocytes assessed as inhibition of hemin-induced hemolysis after 30 mins; type: functional, cell-based
[15] = Antioxidant activity against singlet oxygen radicals assessed as decrease of 4-nitroso-N,N-dimethylaniline decolorization at up to 240 uM after 40 mins by quenching assay; type: functional
[16] = Antioxidant activity against singlet oxygen radicals assessed as decrease of 4-nitroso-N,N-dimethylaniline decolorization at 250 uM after 40 mins by quenching assay; type: functional
[17] = Antioxidant activity against AAPH-induced hemolysis in human erythrocytes assessed as inhibition time at 36 uM; type: functional, Erythrocyte
[18] = Antioxidant activity against AAPH-induced hemolysis in human erythrocytes assessed as inhibition time at 18 uM; type: functional, Erythrocyte
Erythrocyte [19] = test: Antioxidant activity against AAPH-induced hemolysis in human erythrocytes at 54 uM; type: functional, cell-based
[20] = Antioxidant activity against singlet oxygen radicals assessed as decrease of 4-nitroso-N,N-dimethylaniline decolorization at 150 uM after 40 mins by quenching assay; type: functional

Row | Structure (SMILES) | Activity [1] | TIME [2] [h] | Activity [3] [µM/min] | Activity [4] | TIME [5] [h] | Activity [6] | Activity (Erythrocyte [7]) | Activity [8] [µM/min] | Activity ([9]; TDE = time-dependent effect) | Activity [10] [µM/min] | Activity [11] | Time [13] [min] | Activity (Erythrocyte [14]) | also measured
1 | COc1cc(/C=C/C(=O)CC(C)=O)ccc1O | Dose-dependent effect | 3.68 | 0.13 | Active | 0.0237 | Active | inactive | 6.04 | tde | 22.3 | Active | 2.38 |  | Activity [12]: Active
2 | COc1cc(CCC(=O)CC(C)=O)ccc1O | Dose-dependent effect | 2.67 | 0.06 | inactive | 0.0318 | Active |  | 3.85 | tde | 16.9 | Active | 3.48 | Dose-dependent effect | 
3 | COc1cc(/C=C/C(O)CC(C)O)ccc1O (stereo not given) |  | 1.95 | 0.13 | Active | 0.0185 | Active | inactive | 6.26 | tde | 8.57 | Active | 2.05 |  | Activity [15]: inactive
4 | CCOC(=O)/C(=C/c1ccc(O)c(OC)c1)C(C)=O | Dose-dependent effect |  | 0.02 | inactive | 0.0137 | Active |  | 1.78 |  | 7.54 | Active | 1.83 | Dose-dependent effect | Activity [9]: inactive; Activity [16]: Active
5 | COc1cc(/C=C/C(=O)CC(=O)/C=C/c2ccc(O)c(OC)c2)ccc1O [CURCUMIN] |  |  |  |  | 0.0405 |  |  |  |  |  |  | 3.45 |  | 
6 | CC(=O)CC(=O)/C=C/c1ccc(O)c(O)c1 | Dose-dependent effect | 3.73 | 0.08 | Active | 0.0428 | Active |  | 7.56 | tde | 41.2 | Active | 3.92 | Dose-dependent effect | Activity [12]: Active
7 | COc1cc(/C=C/C(=O)CC(C)=O)ccc1OCc1ccccc1 | Dose-dependent effect |  |  | inactive |  | Active | inactive |  |  |  | Active | 3.3 |  | Time [17]: 56 min; Time [18]: 80 min; Activity (Erythrocyte [19]): Active; Activity [9]: inactive; Activity [20]: Active
